Tests used:
[1] = molecular target: Poly [ADP-ribose] polymerase 1 (Homo sapiens, UniProt P09874); experiment: Inhibition of PARP1 (unknown origin) incubated for 45 mins in presence of biotinylated-NAD+ by microplate reader analysis
[2] = molecular target: T1, Bromodomain-containing protein 4 (Homo sapiens, UniProt O60885); experiment: Inhibition of recombinant BRD4 (unknown origin) at 0.5 uM incubated for 120 mins by TR-FRET assay relative to control
SW1990 = experiment: Antiproliferative activity against human SW1990 cells assessed as reduction in cell viability after 4 days by MTT assay; assay type: functional, cell-based; settings: SW1990, 96 h
MDA-MB-231 = experiment: Antiproliferative activity against human MDA-MB-231 cells assessed as reduction in cell viability after 7 days; assay type: functional, cell-based; settings: MDA-MB-231, 168 h
[3] = molecular target: T1, Bromodomain-containing protein 4; experiment: Inhibition of recombinant BRD4 (unknown origin) incubated for 120 mins by TR-FRET assay

Chain of Poly [ADP-ribose] polymerase 1 (P09874 whole entry): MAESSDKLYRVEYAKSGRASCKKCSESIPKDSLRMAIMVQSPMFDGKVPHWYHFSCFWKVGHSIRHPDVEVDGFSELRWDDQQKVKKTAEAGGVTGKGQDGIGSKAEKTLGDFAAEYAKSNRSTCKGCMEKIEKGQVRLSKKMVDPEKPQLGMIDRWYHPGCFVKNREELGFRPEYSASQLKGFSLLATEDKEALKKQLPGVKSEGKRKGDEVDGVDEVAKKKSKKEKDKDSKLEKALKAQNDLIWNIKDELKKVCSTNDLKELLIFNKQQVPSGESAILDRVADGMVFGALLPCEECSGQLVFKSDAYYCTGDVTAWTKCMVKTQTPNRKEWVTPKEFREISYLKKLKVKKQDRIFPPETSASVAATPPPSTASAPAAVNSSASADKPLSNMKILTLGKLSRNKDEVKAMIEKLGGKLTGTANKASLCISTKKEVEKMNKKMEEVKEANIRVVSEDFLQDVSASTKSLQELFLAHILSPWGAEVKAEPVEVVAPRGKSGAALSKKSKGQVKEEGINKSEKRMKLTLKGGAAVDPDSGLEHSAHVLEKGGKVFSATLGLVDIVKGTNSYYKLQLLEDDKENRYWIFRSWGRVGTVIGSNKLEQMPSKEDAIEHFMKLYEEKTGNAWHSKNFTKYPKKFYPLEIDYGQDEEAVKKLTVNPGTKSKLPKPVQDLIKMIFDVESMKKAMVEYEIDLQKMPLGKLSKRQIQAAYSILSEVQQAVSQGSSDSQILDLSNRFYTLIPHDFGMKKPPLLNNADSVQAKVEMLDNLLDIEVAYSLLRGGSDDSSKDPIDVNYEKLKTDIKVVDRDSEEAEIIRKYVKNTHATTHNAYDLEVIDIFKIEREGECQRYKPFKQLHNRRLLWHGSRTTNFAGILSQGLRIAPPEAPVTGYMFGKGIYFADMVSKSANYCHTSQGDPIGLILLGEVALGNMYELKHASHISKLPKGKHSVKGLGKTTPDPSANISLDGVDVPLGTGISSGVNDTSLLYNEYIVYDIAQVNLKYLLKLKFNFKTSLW

Row | Structure (SMILES) | IC50 [1] [nM] | inhibition [2] [%] | IC50 (SW1990) [nM] | IC50 (MDA-MB-231) [nM] | IC50 [3] [nM]
1 | CC[C@@H]1C(=O)N(C)c2cnc(Nc3ccc(-c4nc5c(C(N)=O)cccc5[nH]4)cc3OC(C)C)nc2N1C1CCCC1 | 2050 | 75 |  |  | 
2 | CCOc1cc(-c2nc3c(C(N)=O)cccc3[nH]2)ccc1Nc1ncc2c(n1)N(C1CCCC1)[C@H](CC)C(=O)N2C | 306 | 86 | 2450 | 790 | 
3 | CC[C@@H]1C(=O)N(C)c2cnc(Nc3ccc(-c4nc5c(C(N)=O)cccc5[nH]4)cc3OC3CCCC3)nc2N1C1CCCC1 | 1820 | 47 |  |  | 
4 | CC[C@@H]1C(=O)N(C)c2cnc(Nc3ccc(-c4nc5c(C(N)=O)cccc5[nH]4)cc3OC)nc2N1C1CCCC1 | 150 |  | 2120 | 430 | 237
5 | CC[C@@H]1C(=O)N(C)c2cnc(Nc3ccc(Cc4nc5c(C(N)=O)cccc5[nH]4)cc3OC)nc2N1C1CCCC1 | 355 |  | 3120 | 810 | 186
6 | CC[C@@H]1C(=O)N(C)c2cnc(Nc3ccc(-c4nc5c(C(N)=O)cccc5[nH]4)cc3OC)nc2N1Cc1ccccc1 | 461 | 21 |  |  | 
7 | COc1cc(-c2nc3c(C(N)=O)cccc3[nH]2)ccc1N(C)c1ncc2c(n1)N(C1CCCC1)[C@H](C)C(=O)N2C | 25 |  | 1530 | 460 | 202
8 | CC[C@@H]1C(=O)N(C)c2cnc(Nc3ccc(C(C)c4nc5c(C(N)=O)cccc5[nH]4)cc3OC)nc2N1C1CCCC1 (some centres undefined) | 236 | 74 |  |  | 
